Here are results for nine compounds from paper PMC12249541, “Novel Derivatives of 3-Amino-4-hydroxy-benzenesulfonamide: Synthesis, Binding to Carbonic Anhydrases, and Activity in Cancer Cell 2D and 3D Cultures” (International Journal of Molecular Sciences, 2025).

The subject of data set [1] is triple-negative breast cancer MDA-MB-231. The experiment in a line: MTT cell viability assay, MDA-MB-231. The class given is cell-based, human. The note with it: read-out: EC50, MDA-MB-231. (In general: Tetrazolium assays rely on reduction of a dye to a coloured formazan, in cell work by metabolically active cells.)
The subject of data set [2] is recombinant human carbonic anhydrases (CAs). The experiment in a line: FTSA, statements over several CA isoenzymes. The class given is binding. The following applies: up to 200 µM.
The subject of data set [3] is prostate adenocarcinoma PPC-1. The data set is described as follows: MTT cell viability assay, PPC-1. The class given is cell-based. The following applies: Homo sapiens, read-out: EC50, PPC-1.
For data set [4], the system named is U-87, MDA-MB-231, PPC-1 cell lines. The data set is described as follows: MTT cell viability assay, statements over several cell lines. Type of data set: cell-based, human. The note with it: for viability at 100 µM / EC50: Homo sapiens; for EC50: read-out: EC50 values, range over different cell lines.
The subject of data set [5] is human foreskin fibroblasts (HFs). The data set is described as follows: MTT cell viability assay, fibroblasts. Type of data set: cell-based. The note with it: Fibroblast, 72 h, read-out: EC50, HF.
The next data set deals with human glioblastoma U-87. The experiment in a line: MTT cell viability assay, U-87. The note with it: 72 h, read-out: EC50, U-87. The class given is cell-based.
In the next data set the target is CAII (Homo sapiens, UniProt P00918). The experiment in a line: Fluorescent thermal shift assay (FTSA), CAII. The following applies: compared with compound 24. Type of data set: binding.
In a further data set the target is CAIX (Homo sapiens, UniProt Q16790). The experiment in a line: Fluorescent thermal shift assay (FTSA), CAIX. The class given is binding. The note with it: compared with compound 10.
A further data set addresses CAVA (Homo sapiens, UniProt P35218). The experiment in a line: Fluorescent thermal shift assay (FTSA), CAVA. The class given is binding. The note with it: compared with compound 10.
For a further data set, the target named is CAI (Homo sapiens, UniProt P00915). The experiment in a line: Fluorescent thermal shift assay (FTSA), CAI. Type of data set: binding.
Chain of CAI (P00915 whole entry): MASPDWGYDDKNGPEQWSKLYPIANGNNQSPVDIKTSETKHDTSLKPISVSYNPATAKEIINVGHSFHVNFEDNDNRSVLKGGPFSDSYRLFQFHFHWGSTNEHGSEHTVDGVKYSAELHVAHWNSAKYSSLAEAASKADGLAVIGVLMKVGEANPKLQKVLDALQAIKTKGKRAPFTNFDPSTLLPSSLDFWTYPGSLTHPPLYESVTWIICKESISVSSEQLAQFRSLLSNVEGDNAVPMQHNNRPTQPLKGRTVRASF
Another data set concerns PPC-1 spheroids. The data set is described as follows: 3D culture (cancer spheroids), PPC-1. Type of data set: cell-based, human. The following applies: 10 µM.
The subject of the next data set is MDA-MB-231 spheroids. The experiment in a line: 3D culture (cancer spheroids), MDA-MB-231. Type of data set: cell-based, human. The note with it: 10 µM.
The next data set relates to U-87 spheroids. The experiment in a line: 3D culture (cancer spheroids), U-87. Type of data set: cell-based, human. The note with it: 10 µM.
Setting [6] is: Homo sapiens, MDA-MB-231, MTT, 72 h.
Where [7] appears, read: 100 μM, 72 h, MTT, at least one of the tested cell lines.
[8] abbreviates: MTT at the end of the experiment.
Setting [9] is: cancer cells and fibroblasts 1:1, vs control.

“Also recorded” adds a separate entry of the source. Where two headings read alike, the source gives them in different places.

Chain of CAVA (P35218 39-305): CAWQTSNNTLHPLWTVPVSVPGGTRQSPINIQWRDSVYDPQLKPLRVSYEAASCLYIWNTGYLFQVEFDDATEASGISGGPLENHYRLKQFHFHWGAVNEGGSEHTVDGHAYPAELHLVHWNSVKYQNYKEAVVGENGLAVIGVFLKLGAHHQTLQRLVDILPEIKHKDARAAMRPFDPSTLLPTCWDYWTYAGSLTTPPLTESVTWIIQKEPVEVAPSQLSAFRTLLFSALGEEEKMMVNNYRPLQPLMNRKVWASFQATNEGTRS

One may read the EC50 as the concentration giving half of the maximal effect. Consider `NS(=O)(=O)c1ccc(NC(=O)Nc2ccc(F)cc2)cc1` [Compound U-104, reference compound], for which, in [1] (MTT, 72 h), the half-maximal effective concentration (EC50) turned out to be 240 ± 18 µM.
As to `CC(=O)Nc1cc(S(=O)(=O)NC(C)=O)ccc1O` [Compound 27, N -((3-Acetamido-4-hydroxyphenyl)sulfonyl)acetamide], the “binding to CA isoenzymes (in words)” value in [2] was “did not interact; also recorded: abolished the ability”.
As a reminder, the viability is the share of living cells, or the viability signal relative to a control. Regarding `NS(=O)(=O)c1ccc(O)c(NCC(=NN=C(CNc2cc(S(N)(=O)=O)ccc2O)c2ccccc2)c2ccccc2)c1` [Compound 18, 3,3′-((Hydrazine-1,2-diylidenebis(2-phenylethan-1-yl-2-ylidene))bis(azanediyl))bis(4-hydroxybenzenesulfonamide)], the 50% effective concentration (EC50) in [3] (PPC-1, MTT, 72 h) was 108 ± 17.7 µM; in [1] (setting [6]) it was 127 ± 20.8 µM; in data set [5] (MTT) it was 134 ± 11.1 µM; in the data set on human glioblastoma U-87 (MTT), 105 ± 6 µM. The viability at 100 µM in data set [4] (setting [7]) is under 20%.
In the case of `COC(=O)CCNc1cc(S(N)(=O)=O)ccc1O` [Compound 25, Methyl 3-((2-hydroxy-5-sulfamoylphenyl)amino)propanoate], on CAII, the “fold increase in affinity, CAII” value is about 40 ×.
As for `CCOc1ccc(S(=O)(=O)N(CC)CC)cc1-n1cc(-c2ccccc2)nc1SCC` [Compound 23, 4-Ethoxy-N,N-diethyl-3-(2-(ethylthio)-4-phenyl-1H-imidazol-1-yl)benzenesulfonamide], the “binding to CA isoenzymes (in words)” value in data set [2] is given as “lost its affinity; also recorded: abolished the ability”.
As for `NS(=O)(=O)c1ccc(O)c(NCC(=O)c2cccc3ccccc23)c1` [Compound 14, 4-Hydroxy-3-((2-(naphthalen-1-yl)-2-oxoethyl)amino)benzenesulfonamide], in data set [4] (setting [7]), the cell viability result is listed as “did not show high cytotoxicity”. Further, the “fold increase in affinity, CAIX” value on CAIX came to 4.5 ×. In addition, on CAVA, the “fold increase in affinity, CAVA” value is 9 ×. Also, on CAI (compared with compound 10), the “fold increase in affinity, CAI” value was determined as 60 ×.
In the case of `NS(=O)(=O)c1ccc(O)c(NCC(=O)c2ccc(Cl)cc2)c1` [Compound 12, 4-Hydroxy-3-((2-(4-chlorophenyl)-2-oxoethyl)amino)benzenesulfonamide], the EC50 was 137 ± 15.5 µM in data set [3] (PPC-1, MTT, 72 h); 148 ± 22.5 µM in data set [1] (setting [6]); 166 ± 7 µM in data set [5] (MTT); 137 ± 15.4 µM with human glioblastoma U-87 (MTT). Also, in data set [4] (setting [7]), the viability at 100 µM is under 20%. In addition, the “melting temperature (Tm) of CAI with increasing compound concentration” value on CAI (0–200 µM of compound, FTSA) fell in the range of 56 to 66 °C.
As for `CCOc1ccc(S(=O)(=O)N(CC)CC)cc1-n1cc(-c2ccccc2)n(CC)c1=O` [Compound 21, 4-Ethoxy-N,N-diethyl-3-(3-ethyl-2-oxo-4-phenyl-2,3-dihydro-1H-imidazol-1-yl)benzenesulfonamide], in data set [2], the “binding to CA isoenzymes (in words)” value was “completely lost its ability to bind; also recorded: abolished the ability; also recorded: did not bind any of the tested CAs”. Further, the EC50 in [3] (PPC-1, MTT, 72 h) is 43.7 ± 15 µM; in data set [1] (setting [6]) it was 57.3 ± 15 µM; in data set [4] (MTT, 72 h), 43.7 to 148 µM; in data set [5] (MTT), 259 ± 8.4 µM; in the data set with human glioblastoma U-87 (MTT), 148 ± 10.4 µM. For the same compound, the viability at 100 µM in data set [4] (setting [7]) is under 20%. For the same compound, the “selectivity for cancer cells over fibroblasts” value in data set [4] (from EC50 values, cancer cell lines vs HF) was 1.5–6 times. In addition, in the data set on PPC-1 spheroids (setting [8]), the “viability of cells in spheroids, PPC-1” value was “reduced the viability”. The “spheroid growth / size, PPC-1” value in the data set with PPC-1 spheroids (setting [9]) was “no statistically significant effect”. Further, the “viability of cells in spheroids, MDA-MB-231” value in the data set on MDA-MB-231 spheroids (setting [8]) was “reduced the viability”. Further, in the data set with MDA-MB-231 spheroids (setting [9]), the “spheroid growth / size, MDA-MB-231” value is reported as “reduced the growth”. Also, in the data set on U-87 spheroids (setting [8]), the “viability of cells in spheroids, U-87” value is “reduced the viability”. In addition, the “spheroid growth / size, U-87” value in the data set on U-87 spheroids (setting [9]) is given as “reduced the growth”.
Turning to `NS(=O)(=O)c1ccc(O)c(N=Cc2ccc([N+](=O)[O-])s2)c1` [Compound 9, 4-Hydroxy-3-(((5-nitrothiophen-2-yl)methylene)amino)benzenesulfonamide], the EC50 in data set [3] (PPC-1, 72 h) was 13 ± 3.5 µM; in data set [1] (Homo sapiens, MDA-MB-231, 72 h), 14 ± 3.2 µM; in data set [4] (72 h), 13 to 23.3 µM; in data set [5], 13.8 ± 5.2 µM; with human glioblastoma U-87 it was 23.3 ± 2.9 µM. In data set [4] (setting [7]), this compound displayed a viability at 100 µM of under 20%.
